{
  "source": "patent US7906488B2",
  "about": "“Sphingolipids in treatment and prevention of steatosis and of steatosis or of hepatotoxicity and its sequelae” (Nederlandse Organisatie Voor …, priority 2004, dated 2011)",
  "key": {"APOE*3Leiden mice": {"tested_on": "APOE*3Leiden mice", "assay": "Plasma parameters, body and liver weight after 1% PS-containing Western-type diet", "assay_type": "in vivo", "source_text": "Sphingolipids: The three sphingolipids that represent the most abundant natural complex sphingolipid classes and the three of the simplest natural sphingolipids, the sphingoid bases that can be formed by enzymatic breakdown of complex sphingolipids in the intestine were used. Sphingomyelin (mainly N-palmitoyl-sphingosine-1-phosphocholine) from egg was obtained from Larodan Fine Chemicals (Stockholm, Sweden). Yeast-derived (semi)synthetic ceramide III (N-stearoyl-phytosphingosine), cerebroside (N-stearoyl-phytosphingosine-1-glucose) and phytosphingosine (PS) were from Cosmoferm BV (Delft, the Netherlands). Sphinganine and sphingosine were from Avanti Polar Lipids (Albaster, Ala.). Animals and diets: Heterozygous female APOE*3Leiden transgenic mice (Van Vlijmen et al. 1994. J. Clin. Invest 93:1403-1410.) (6 months old) were fed a Western-type diet (Hope Farms, Woerden, the Netherlands) containing 15% cocoa butter, 0.25% cholesterol, 1% corn oil, 40.5% sucrose, 20% acid casein, 10% corn starch and 5.95% cellulose (all w/w) for 5 weeks. The mice were allowed free access to food and water. Body weight and food intake were monitored weekly. In the first experiment (FIG. 2), the mice were randomized after these 5 weeks into 7 groups (n=6), based on plasma cholesterol, triglycerides, and body weight. Subsequently, the mice were fed for three weeks the same diet without or with 0.1% (w/w) phytosphingosine (PS), sphingosine, sphinganine, cerebroside, ceramide III, or sphingomyelin. Then, the sphingolipid dose was increased to 0.2% (w/w) for 3 weeks and finally to 0.4% (w/w) for 3 weeks. At randomization, and at 3, 6, and 9 weeks, tail vein blood samples were obtained after a 4 h-fast. In all subsequent experiments, female APOE*3Leiden transgenic mice (6 months old) were fed the Western-type diet for 5 weeks, and randomized as described. Subsequently, they were fed the Western-type diet for 5 weeks, or this diet supplemented with 1.0% (w/w) of PS, before being subjected to experimentation.\nPlasma parameters: Tail blood samples were collected in EDTA-coated cups, or in paraoxon-coated capillaries to prevent lipolysis as described in Zambon et al. 1993 (Zambon et al. 1993. J. Lipid Res. 34:1021-1028). Plasma lipid parameters were determined using commercial kits for total cholesterol (C) Chol R1 from Roche Diagnostics, Mannheim, Germany), non-esterified free fatty acids (FFA) (NEFA-C; Wako chemicals, Neuss, Germany), Total triglycerides (TG) (Triglyceride GPO-Trinder; Sigma, St. Louis, Mo.), β-hydroxybutyrate (β-HB; Sigma) and ALAT (Reflotron GPT; Roche). Serum amyloid A (SAA) was measured by ELISA (Biosource, Nivelles, Belgium) and fibrinogen by sandwich ELISA, as described in Koopman et al., 2005 (Koopman et al. 2005. Fibrinol Proteol 11:19). For lipoproteins fractionation, groupwise-pooled plasma was size-fractionated by fast protein liquid chromatography (FPLC) on a Superose 6 column (Äkta; Amersham Pharmacia Biotech, Uppsala, Sweden). Fractions were assayed for total C and TG as described. Hepatic VLDL-TG production: The rate of hepatic VLDL-TG production, de novo apoB secretion, and VLDL composition were determined in overnight-fasted mice. Mice were anaesthetized with vetranquil/fentanyl/midazolam i.p., and injected i.v. with 0.1 ml PBS containing 100 μCi Tran^35S-label™ (ICN Biomedicals, Irvine, Calif.) to measure the de novo apoB synthesis. After 30 min, the animals received a Triton WR1339 injection (Tyloxapol, Sigma; 500 mg/kg body weight in 100 μl saline) to prevent systemic lipolysis of newly-secreted hepatic VLDL-TG (Aalto-Setala et al. 1992. J. Clin. Invest 90:1889-1900.27) Blood samples were drawn at 0, 15, 30, 60, and 90 min after Triton WR1339 injection and plasma TG concentrations were determined. After 90 min, the animals were sacrificed and blood was collected by retro-orbital bleeding for isolation of VLDL. […]"}, "APOE3*Leiden (E3L) mice": {"tested_on": "APOE3*Leiden (E3L) mice", "assay": "High fat high cholesterol diet feeding for 16 weeks (Example 1)", "assay_type": "in vivo", "experimental": "Forty-five female heterozygous APOE3*Leiden […]) mice were fed a high fat and high cholesterol diet for four weeks (week -4 to 0). The mice were housed during the experiment in clean-conventional animal rooms (relative humidity 50-60%, temperature 21° C., light cycle 6 am to 6 pm). Mice were supplied with food and acidified tap water ad libitum. At week 0, the mice were randomized on the basis of plasma total triglyceride and cholesterol levels into a control group of fifteen mice and two treatment groups of fifteen mice. The groups were: • 1. high fat, high cholesterol diet only • 2. high fat, high cholesterol diet plus 0.7% (w/w) phytosphingosine • 3. high fat, 'high' cholesterol diet with a reduced cholesterol content, resulting in about the same plasma cholesterol level as was obtained in group 2. The treatment was continued for 16 weeks. During the treatment period, tail blood samples were obtained at week 0, 2, 4, 8, 12, and 16 to measure plasma cholesterol and triglyceride levels and to determine plasma lipoprotein composition. After sixteen weeks, mice were autopsied, liver weight was determined. Body weight and food consumption were determined every four weeks Dietary ingredients were provided by Hope Farms (Woerden, the Netherlands). For group 1 (high cholesterol), the hypercholesterolemic Western-type diet (W-diet) described by Nishina et al (J. Lipid Res. 1990; 31:859) was supplemented with cholesterol (0.5% w/w, final concentration) and with sodium cholate (0.05% w/w, final concentration). This powdered Western-type diet was mixed with 2% agar and freeze-dried as pellets. The diet for group 2 (treatment group) was prepared by the addition of 0.7% (w/w) phytosphingosine to the same powdered Western-type diet (i.e. also supplemented with cholesterol (0.5% w/w, final concentration) and sodium cholate (0.05% w/w, final concentration)). The supplemented diet mixture was mixed with 2% agar and freeze-dried as pellets. The diet W for group 3 (low cholesterol) contained 0.1% cholesterol, and 0.05% sodium cholate (w/w, final concentration). This powdered Western-type diet was mixed with 2% agar and freeze-dried as pellets. The diets were prepared every eight weeks, and stored in the dark at -20° C. Food was given ad libitum. Total cholesterol was measured using the kit Chol R1 from Roche. Total triglycerides were measured using the kit Triglycerides GPO-PAP from Roche. ALAT was measured by dry chemistry on a Reflotron (Roche)."}, "[1]": {"settings": "1% PS in Western-type diet, 5 weeks"}, "[2]": {"settings": "1% PS in Western-type diet, 5 weeks, 4 h-fasted"}, "[3]": {"settings": "week 16, 0.7% (w/w) phytosphingosine in high fat, high cholesterol diet"}, "[4]": {"settings": "week 16, 0.7% phytosphingosine, p<0.001"}},
  "data": [
    {"smiles": "CCCCCCCCCCCCCC[C@@H](O)[C@@H](O)[C@@H](N)CO", "note": "[PS, phytosphingosine]", "values": [
      {"measurement": "Effects on body weight or food intake", "setting": "APOE*3Leiden mice; 1% (w/w) PS in Western-type diet, five weeks", "value": "No effects"},
      {"measurement": "Body weight, % Δ vs control", "setting": "APOE*3Leiden mice; [1]", "value": "n.s."},
      {"measurement": "HDL cholesterol (FPLC lipoprotein profile of pooled plasma)", "setting": "APOE*3Leiden mice; [1]", "value": "did not change"},
      {"measurement": "Liver weight, % Δ vs control", "setting": "APOE*3Leiden mice; [1]", "value": "−22", "unit": "%"},
      {"measurement": "Plasma free fatty acids, % Δ vs control", "setting": "APOE*3Leiden mice; [1]", "value": "−36", "unit": "%"},
      {"measurement": "Plasma total cholesterol, % Δ vs control", "setting": "APOE*3Leiden mice; [1]", "value": "−57", "unit": "%"},
      {"measurement": "Plasma triglycerides, % Δ vs control", "setting": "APOE*3Leiden mice; [1]", "value": "−58", "unit": "%"},
      {"measurement": "Plasma β-hydroxybutyrate, % Δ vs control", "setting": "APOE*3Leiden mice; [1]", "value": "n.s."},
      {"measurement": "Body weight", "setting": "APOE*3Leiden mice; [2]", "value": "22.6 ± 1.0", "unit": "g"},
      {"measurement": "Liver weight", "setting": "APOE*3Leiden mice; [2]", "value": "1.05 ± 0.08", "unit": "g"},
      {"measurement": "Plasma free fatty acids", "setting": "APOE*3Leiden mice; [2]", "value": "1.06 ± 0.14", "unit": "mmol/L"},
      {"measurement": "Plasma total cholesterol", "setting": "APOE*3Leiden mice; [2]", "value": "6.1 ± 1.1", "unit": "mmol/L"},
      {"measurement": "Plasma triglycerides", "setting": "APOE*3Leiden mice; [2]", "value": "1.19 ± 0.39", "unit": "mmol/L"},
      {"measurement": "Plasma β-hydroxybutyrate", "setting": "APOE*3Leiden mice; [2]", "value": "0.49 ± 0.39", "unit": "mmol/L"},
      {"measurement": "Body weight and food intake between the three groups", "setting": "APOE3*Leiden (E3L) mice; 0.7% phytosphingosine, 16 weeks", "value": "did not differ"},
      {"measurement": "Final mean body weight", "setting": "APOE3*Leiden (E3L) mice; [3]", "value": 22.1, "unit": "gram"},
      {"measurement": "Final mean liver weight", "setting": "APOE3*Leiden (E3L) mice; [3]", "value": 1.34, "unit": "gram"},
      {"measurement": "Final mean plasma ALAT values", "setting": "APOE3*Leiden (E3L) mice; [3]", "value": 82, "unit": "U/L"},
      {"measurement": "ALAT compared with high cholesterol group", "setting": "APOE3*Leiden (E3L) mice; [4]", "value": "significantly lower"},
      {"measurement": "Liver weight compared with high cholesterol group 1", "setting": "APOE3*Leiden (E3L) mice; [4]", "value": "significantly lower"}
    ]}
  ]
}
